Measured values reported in patent US6737383B1, “Herbicidal oxadiazolidines” (priority 1999, dated 2004).

Assays:
morningglory = test: Test B pre/postemergence morningglory; type: in vivo, Ipomoea hederacea
Procedure, shortened: (§1)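 Response is a visual 0-to-10 score relative to untreated plants, where 0 means no effect and 10 means complete control, taken twelve to sixteen days after application. Treatments went onto soil at planting and onto foliage of 1- to 4-leaf plants, using a surfactant-containing non-phytotoxic solvent.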

rice = test: Test B flood test rice; type: in vivo, Oryza sativa
Procedure, shortened: (§2)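 Flood test on plants grown to the 2-leaf stage; treated plants kept in greenhouse twelve to sixteen days, then visually rated against controls on a 0 (no effect) to 10 (complete control) scale.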

cocklebur = test: Test B pre/postemergence cocklebur; type: in vivo, Xanthium strumarium
Procedure, shortened: as §1

surinam grass = test: Test B pre/postemergence surinam grass; type: in vivo, Brachiaria decumbens
Procedure, shortened: as §1

giant foxtail = test: Test B pre/postemergence giant foxtail; type: in vivo, Setaria faberii
Procedure, shortened: as §1

purple nutsedge = test: Test B pre/postemergence purple nutsedge; type: in vivo, Cyperus rotundus
Procedure, shortened: as §1

bedstraw = test: Test B pre/postemergence bedstraw; type: in vivo, Galium aparine
Procedure, shortened: as §1

crabgrass = test: Test B pre/postemergence crabgrass; type: in vivo, Digitaria sanguinalis
Procedure, shortened: as §1

blackgrass = test: Test B pre/postemergence blackgrass; type: in vivo, Alopecurus myosuroides
Procedure, shortened: as §1

duck salad = test: Test B flood test duck salad; type: in vivo, Heteranthera limosa
Procedure, shortened: as §2

bamyardgrass = test: Test B flood test barnyardgrass; type: in vivo, Echinochloa crus-galli
Procedure, shortened: as §2

smallflower flatsedge = test: Test B flood test smallflower flatsedge; type: in vivo, Cyperus difformis
Procedure, shortened: as §2

wheat = test: Test B pre/postemergence wheat; type: in vivo, Triticum aestivum
Procedure, shortened: as §1

wild oat = test: Test B pre/postemergence wild oat; type: in vivo, Avena fatua
Procedure, shortened: as §1

corn = test: Test B pre/postemergence corn; type: in vivo, Zea mays
Procedure, shortened: as §1

velvetleaf = test: Test B pre/postemergence velvetleaf; type: in vivo, Abutilon theophrasti
Procedure, shortened: as §1

[1] = Postemergence, Rate 62 g/ha, scale 0 to 10, 0 is no effect, 10 is complete control
[2] = Postemergence, Rate 250 g/ha, scale 0 to 10, 0 no effect, 10 complete control
[3] = Preemergence, Rate 62 g/ha, scale 0 to 10, 0 is no effect, 10 is complete control
[4] = Preemergence, Rate 125 g/ha, scale 0 to 10 (0 no effect, 10 complete control)
[5] = Preemergence, Rate 250 g/ha, scale of 0 to 10 where 0 is no effect and 10 is complete control
[6] = Preemergence, Rate 500 g/ha, scale 0 (no effect) to 10 (complete control)
[7] = Rate 125 g/ha, Postemergence, scale 0 to 10, 0 no effect, 10 complete control
[8] = Rate 500 g/ha, Postemergence, 0 to 10 scale (0 no effect, 10 complete control)
[9] = Rate 125 g/ha, Postemergence section (flood test species), scale 0 to 10, 0 no effect, 10 complete control
[10] = Rate 500 g/ha, Postemergence section of Table B, 0 to 10 scale (0 no effect, 10 complete control)
[11] = flood test, listed under Postemergence, Rate 250 g/ha, scale 0 to 10, 0 no effect, 10 complete control

**Q.** For `Cc1ccccc1-n1c(=O)on(C(=O)N(c2ccc(F)cc2F)C(C)C)c1=O` [Compound 25], which “Morningglory plant response rating” value (morningglory; [1]) is on record?
**A.** 1

**Q.** What about the “Morningglory plant response rating” value (morningglory; [2]) of the same compound?
**A.** 2

**Q.** What about the “Plant response rating, Morningglory” value (morningglory; [3]) of the same compound?
**A.** 0

**Q.** What about the “Plant response rating, Morningglory” value (morningglory; [4]) of the same compound?
**A.** 0

**Q.** And the “Plant response rating, Morningglory” value (morningglory; [5])?
**A.** 0

**Q.** What about the “Morningglory plant response rating” value (morningglory; [6]) of the same compound?
**A.** 0

**Q.** And the “Morningglory plant response rating” value (morningglory; [7])?
**A.** 1

**Q.** And the “Morningglory plant response rating” value (morningglory; [8])?
**A.** 2

**Q.** And the “Rice plant response rating” value (rice; [1])?
**A.** 0

**Q.** What about the “Rice plant response rating” value (rice; [9]) of the same compound?
**A.** 0

**Q.** What about the “Rice plant response rating” value (rice; [10]) of the same compound?
**A.** 3

**Q.** And the “Rice plant response rating” value (rice; [11])?
**A.** 0

**Q.** What about the “Cocklebur plant response rating” value (cocklebur; [1]) of the same compound?
**A.** 0

**Q.** What about the “Cocklebur plant response rating” value (cocklebur; [2]) of the same compound?
**A.** 2

**Q.** What about the “Plant response rating, Cocklebur” value (cocklebur; [3]) of the same compound?
**A.** 0

**Q.** What about the “Plant response rating, Cocklebur” value (cocklebur; [4]) of the same compound?
**A.** 0

**Q.** What about the “Plant response rating, Cocklebur” value (cocklebur; [5]) of the same compound?
**A.** 0

**Q.** What about the “Cocklebur plant response rating” value (cocklebur; [6]) of the same compound?
**A.** 0

**Q.** What about the “Cocklebur plant response rating” value (cocklebur; [7]) of the same compound?
**A.** 2

**Q.** And the “Cocklebur plant response rating” value (cocklebur; [8])?
**A.** 5

**Q.** And the “B. signalgrass plant response rating” value (surinam grass; [1])?
**A.** 0

**Q.** And the “B. signalgrass plant response rating” value (surinam grass; [2])?
**A.** 0

**Q.** And the “Plant response rating, B. signalgrass” value (surinam grass; [3])?
**A.** 0

**Q.** And the “Plant response rating, B. signalgrass” value (surinam grass; [4])?
**A.** 0

**Q.** And the “Plant response rating, B. signalgrass” value (surinam grass; [5])?
**A.** 7

**Q.** And the “B. signalgrass plant response rating” value (surinam grass; [6])?
**A.** 7

**Q.** What about the “B. signalgrass plant response rating” value (surinam grass; [7]) of the same compound?
**A.** 0

**Q.** And the “B. signalgrass plant response rating” value (surinam grass; [8])?
**A.** 2

**Q.** And the “Giant foxtail plant response rating” value (giant foxtail; [1])?
**A.** 3

**Q.** What about the “Giant foxtail plant response rating” value (giant foxtail; [2]) of the same compound?
**A.** 8

**Q.** And the “Plant response rating, Giant foxtail” value (giant foxtail; [3])?
**A.** 5

**Q.** And the “Plant response rating, Giant foxtail” value (giant foxtail; [4])?
**A.** 7

**Q.** And the “Plant response rating, Giant foxtail” value (giant foxtail; [5])?
**A.** 10

**Q.** What about the “Giant foxtail plant response rating” value (giant foxtail; [6]) of the same compound?
**A.** 10

**Q.** What about the “Giant foxtail plant response rating” value (giant foxtail; [7]) of the same compound?
**A.** 5

**Q.** What about the “Giant foxtail plant response rating” value (giant foxtail; [8]) of the same compound?
**A.** 8

**Q.** And the “Nutsedge plant response rating” value (purple nutsedge; [1])?
**A.** 0

**Q.** And the “Nutsedge plant response rating” value (purple nutsedge; [2])?
**A.** 0

**Q.** And the “Plant response rating, Nutsedge” value (purple nutsedge; [3])?
**A.** 0

**Q.** What about the “Plant response rating, Nutsedge” value (purple nutsedge; [4]) of the same compound?
**A.** 0

**Q.** What about the “Plant response rating, Nutsedge” value (purple nutsedge; [5]) of the same compound?
**A.** 0

**Q.** What about the “Nutsedge plant response rating” value (purple nutsedge; [6]) of the same compound?
**A.** 0

**Q.** And the “Nutsedge plant response rating” value (purple nutsedge; [7])?
**A.** 0

**Q.** And the “Bedstraw plant response rating” value (bedstraw; [1])?
**A.** 4

**Q.** What about the “Bedstraw plant response rating” value (bedstraw; [2]) of the same compound?
**A.** 7

**Q.** And the “Plant response rating, Bedstraw” value (bedstraw; [3])?
**A.** 0

**Q.** And the “Plant response rating, Bedstraw” value (bedstraw; [4])?
**A.** 0

**Q.** What about the “Plant response rating, Bedstraw” value (bedstraw; [5]) of the same compound?
**A.** 0

**Q.** What about the “Bedstraw plant response rating” value (bedstraw; [6]) of the same compound?
**A.** 3

**Q.** And the “Bedstraw plant response rating” value (bedstraw; [7])?
**A.** 4

**Q.** And the “Bedstraw plant response rating” value (bedstraw; [8])?
**A.** 7

**Q.** And the “Crabgrass plant response rating” value (crabgrass; [1])?
**A.** 2

**Q.** What about the “Crabgrass plant response rating” value (crabgrass; [2]) of the same compound?
**A.** 9

**Q.** What about the “Plant response rating, Crabgrass” value (crabgrass; [3]) of the same compound?
**A.** 5

**Q.** And the “Plant response rating, Crabgrass” value (crabgrass; [4])?
**A.** 8

**Q.** And the “Plant response rating, Crabgrass” value (crabgrass; [5])?
**A.** 10

**Q.** And the “Crabgrass plant response rating” value (crabgrass; [6])?
**A.** 10

**Q.** What about the “Crabgrass plant response rating” value (crabgrass; [7]) of the same compound?
**A.** 7

**Q.** And the “Crabgrass plant response rating” value (crabgrass; [8])?
**A.** 9

**Q.** And the “Blackgrass plant response rating” value (blackgrass; [1])?
**A.** 4

**Q.** What about the “Blackgrass plant response rating” value (blackgrass; [2]) of the same compound?
**A.** 6

**Q.** What about the “Plant response rating, Blackgrass” value (blackgrass; [3]) of the same compound?
**A.** 3

**Q.** And the “Plant response rating, Blackgrass” value (blackgrass; [4])?
**A.** 3

**Q.** What about the “Plant response rating, Blackgrass” value (blackgrass; [5]) of the same compound?
**A.** 8

**Q.** What about the “Blackgrass plant response rating” value (blackgrass; [6]) of the same compound?
**A.** 8

**Q.** What about the “Blackgrass plant response rating” value (blackgrass; [7]) of the same compound?
**A.** 5

**Q.** What about the “Blackgrass plant response rating” value (blackgrass; [8]) of the same compound?
**A.** 7

**Q.** What about the “Ducksalad plant response rating” value (duck salad; [1]) of the same compound?
**A.** 0

**Q.** And the “Ducksalad plant response rating” value (duck salad; [9])?
**A.** 0

**Q.** And the “Ducksalad plant response rating” value (duck salad; [10])?
**A.** 0

**Q.** What about the “Ducksalad plant response rating” value (duck salad; [11]) of the same compound?
**A.** 0

**Q.** And the “Barnyardgrass plant response rating” value (bamyardgrass; [1])?
**A.** 0

**Q.** And the “Barnyardgrass plant response rating” value (bamyardgrass; [9])?
**A.** 0

**Q.** And the “Barnyardgrass plant response rating” value (bamyardgrass; [10])?
**A.** 8

**Q.** What about the “Barnyardgrass plant response rating” value (bamyardgrass; [11]) of the same compound?
**A.** 0

**Q.** And the “S. Flatsedge plant response rating” value (smallflower flatsedge; [1])?
**A.** 0

**Q.** What about the “S. Flatsedge plant response rating” value (smallflower flatsedge; [9]) of the same compound?
**A.** 0

**Q.** What about the “S. Flatsedge plant response rating” value (smallflower flatsedge; [11]) of the same compound?
**A.** 0

**Q.** And the “Wheat plant response rating” value (wheat; [1])?
**A.** 0

**Q.** What about the “Wheat plant response rating” value (wheat; [2]) of the same compound?
**A.** 0

**Q.** And the “Plant response rating, Wheat” value (wheat; [3])?
**A.** 0

**Q.** And the “Plant response rating, Wheat” value (wheat; [4])?
**A.** 0

**Q.** What about the “Plant response rating, Wheat” value (wheat; [5]) of the same compound?
**A.** 0

**Q.** And the “Wheat plant response rating” value (wheat; [6])?
**A.** 0

**Q.** And the “Wheat plant response rating” value (wheat; [7])?
**A.** 0

**Q.** What about the “Wild oats plant response rating” value (wild oat; [1]) of the same compound?
**A.** 0

**Q.** What about the “Wild oats plant response rating” value (wild oat; [2]) of the same compound?
**A.** 1

**Q.** And the “Plant response rating, Wild oats” value (wild oat; [4])?
**A.** 2

**Q.** And the “Plant response rating, Wild oats” value (wild oat; [5])?
**A.** 6

**Q.** What about the “Wild oats plant response rating” value (wild oat; [6]) of the same compound?
**A.** 7

**Q.** What about the “Wild oats plant response rating” value (wild oat; [7]) of the same compound?
**A.** 0

**Q.** And the “Corn plant response rating” value (corn; [1])?
**A.** 0

**Q.** What about the “Corn plant response rating” value (corn; [2]) of the same compound?
**A.** 0

**Q.** And the “Plant response rating, Corn” value (corn; [3])?
**A.** 0

**Q.** And the “Plant response rating, Corn” value (corn; [4])?
**A.** 0

**Q.** What about the “Plant response rating, Corn” value (corn; [5]) of the same compound?
**A.** 0

**Q.** What about the “Corn plant response rating” value (corn; [6]) of the same compound?
**A.** 0

**Q.** And the “Corn plant response rating” value (corn; [7])?
**A.** 0

**Q.** What about the “Corn plant response rating” value (corn; [8]) of the same compound?
**A.** 0

**Q.** What about the “Velvetleaf plant response rating” value (velvetleaf; [1]) of the same compound?
**A.** 0

**Q.** And the “Velvetleaf plant response rating” value (velvetleaf; [2])?
**A.** 0

**Q.** What about the “Plant response rating, Velvetleaf” value (velvetleaf; [3]) of the same compound?
**A.** 0

**Q.** And the “Plant response rating, Velvetleaf” value (velvetleaf; [4])?
**A.** 0

**Q.** What about the “Plant response rating, Velvetleaf” value (velvetleaf; [5]) of the same compound?
**A.** 0

**Q.** What about the “Velvetleaf plant response rating” value (velvetleaf; [6]) of the same compound?
**A.** 0

**Q.** And the “Velvetleaf plant response rating” value (velvetleaf; [7])?
**A.** 0
